Values of other authors as cited in PubChem BioAssay AID1259410 (Chemical Carcinogenesis Research Information System (CCRIS), 2018).

Tested on: rodent tumor promotion studies, tumor incidence
Assay: CCRIS tumor promotion studies
Source text: The CCRIS database contains chemical records with carcinogenicity, mutagenicity, tumor promotion, and tumor inhibition test results. It was developed by the National Cancer Institute (NCI). Data are derived from studies cited in primary journals, current awareness tools, NCI reports, and other sources. Test results have been reviewed by experts in carcinogenesis and mutagenesis.
CCRIS provides historical information from the years 1985 - 2011. It is no longer updated.
This is an archive assay for CCRIS tumor promotion studies.

[1] = Carcinogen: 7,12-DIMETHYLBENZ(A)ANTHRACENE, Doses [Carcinogen]: TOP, Route [Carcinogen]: DERMAL, Route [Promoter]: DERMAL, Species: MOUSE, Strain/Sex: MALE

C=CC(N)=O
outcome (Carcinogen: METHYLNITROSOUREA [684-93-5], Doses [Carcinogen]: 50 MG/KG BW ONCE, Doses [Promoter]: 0, 20, 40 PPM IN DRINKING WATER AFTER CARCINOGEN ADMINISTRATION (STUDY DURATION: 30 WK), Doses [Promoter]: 0, 20, 40 PPM IN DRINKING WATER AFTER CARCINOGEN ADMINISTRATION (STUDY DURATION: 30 WK), Route [Carcinogen]: IP INJECTION, Route [Promoter]: DRINKING WATER, Species: RAT, Strain/Sex: SPRAGUE-DAWLEY/FEMALE (20/GROUP)): mammary gland: adenocarcinoma (significant increase in tumor incidence at 40 ppm

CCCC[C@@H](C)[C@@H](OC(=O)C[C@@H](CC(=O)O)C(=O)O)[C@H](C[C@@H](C)C[C@H](O)CCCC[C@@H](O)C[C@H](O)[C@H](C)N)OC(=O)C[C@@H](CC(=O)O)C(=O)O
outcome (Doses [Carcinogen]: 100 PPB IN WATER FOR 30 MIN, Doses [Promoter]: 0, 23, 104 PPM IN DIET FOR 42 WK BEGINNING 1 MO POST CARCINOGEN TREATMENT (STUDY DURATION: 64 WK), Doses [Promoter]: 0, 23, 104 PPM IN DIET FOR 42 WK BEGINNING 1 MO POST CARCINOGEN TREATMENT (STUDY DURATION: 64 WK), Route [Carcinogen]: IMMERSION, Route [Promoter]: ORAL, Species: FISH, Strain/Sex: SHASTA RAINBOW TROUT/MALE,FEMALE): liver: tumor

C[C@]12CC[C@H](O)CC1=CC[C@@H]1[C@@H]2CC[C@]2(C)C(=O)CC[C@@H]12
outcome (Carcinogen: N-METHYL-N'-NITRO-N-NITROSOGUANIDINE, 70-25-7, Doses [Carcinogen]: 35 PPM IN WATER FOR 30 MIN ONCE, Doses [Promoter]: 0, 111, 222, 444, 888 PPM IN DIET FOR 6 MO BEGINNING 3 MO POST CARCINOGEN TREATMENT (STUDY DURATION: 9 MO), Doses [Promoter]: 0, 111, 222, 444, 888 PPM IN DIET FOR 6 MO BEGINNING 3 MO POST CARCINOGEN TREATMENT (STUDY DURATION: 9 MO), Route [Carcinogen]: IMMERSION, Route [Promoter]: ORAL, Species: FISH, Strain/Sex: RAINBOW TROUT/MALE,FEMALE): liver: tumor
outcome (Carcinogen: N-METHYL-N'-NITRO-N-NITROSOGUANIDINE, 70-25-7, Doses [Carcinogen]: 35 PPM IN WATER FOR 30 MIN ONCE, Doses [Promoter]: 0, 111, 888 PPM IN DIET FOR 6 MO BEGINNING 3 MO POST CARCINOGEN TREATMENT (STUDY DURATION: 9 MO), Doses [Promoter]: 0, 111, 888 PPM IN DIET FOR 6 MO BEGINNING 3 MO POST CARCINOGEN TREATMENT (STUDY DURATION: 9 MO), Route [Carcinogen]: IMMERSION, Route [Promoter]: ORAL, Species: FISH, Strain/Sex: RAINBOW TROUT/MALE,FEMALE): kidney: tumor
outcome (Carcinogen: N-NITROSOMORPHOLINE, 59-89-2, Doses [Carcinogen]: 120 MG/L IN DRINKING WATER FOR 7 WK, Doses [Promoter]: 0, 0.6% IN THE DIET FOR DURATION OF STUDY BEGINNING 1 WK POST CARCINOGEN TREATMENT (STUDY DURATION: 84 WK), Route [Carcinogen]: ORAL, Route [Promoter]: ORAL, Species: RAT, Strain/Sex: SPRAGUE-DAWLEY/FEMALE): liver: hepatocellular carcinoma
outcome (Carcinogen: N-NITROSOMORPHOLINE, 59-89-2, Doses [Carcinogen]: 120 MG/L IN DRINKING WATER FOR 7 WK, Doses [Promoter]: 0, 0.6% IN THE DIET FOR DURATION OF STUDY BEGINNING 1 WK POST CARCINOGEN TREATMENT (STUDY DURATION: 84 WK), Route [Carcinogen]: ORAL, Route [Promoter]: ORAL, Species: RAT, Strain/Sex: SPRAGUE-DAWLEY/MALE): liver: hepatocellular adenoma
outcome (Doses [Carcinogen]: 10 PPB IN WATER FOR 30 MIN, Doses [Promoter]: 0, 444 PPM IN DIET FOR 6 MO BEGINNING 3 MO POST CARCINOGEN TREATMENT (STUDY DURATION: 9 MO), Route [Carcinogen]: IMMERSION, Route [Promoter]: ORAL, Species: FISH, Strain/Sex: RAINBOW TROUT/MALE, FEMALE): liver: tumor
outcome (Doses [Carcinogen]: 10 PPB IN WATER, Doses [Promoter]: 0, 222, 444, 888 PPM IN DIET 1/D 5 D/WK FOR 30 WK BEGINNING 16 WK POST CARCINOGEN TREATMENT (STUDY DURATION: 46 WK), Doses [Promoter]: 0, 222, 444, 888 PPM IN DIET 1/D 5 D/WK FOR 30 WK BEGINNING 16 WK POST CARCINOGEN TREATMENT (STUDY DURATION: 46 WK), Route [Carcinogen]: IMMERSION, Route [Promoter]: ORAL, Species: FISH, Strain/Sex: RAINBOW TROUT/MALE, FEMALE): liver: tumor

CC(O)(CS(=O)(=O)c1ccc(F)cc1)C(=O)Nc1ccc(C#N)c(C(F)(F)F)c1 (stereo not drawn)
outcome (Carcinogen: 3,2'-DIMETHYL-4-AMINOBIPHENYL, 13394-86-0, Doses [Carcinogen]: 50 MG/KG BW ONCE/2 WK FOR FIRST 20 WK, Doses [Promoter]: 0, 10, 30 MG/KG BW BY GAVAGE 3X/WK FOR 40 WK BEGINNING 20 WK POST CARCINOGEN TREATMENT (STUDY DURATION: 60 WK), Doses [Promoter]: 0, 10, 30 MG/KG BW BY GAVAGE 3X/WK FOR 40 WK BEGINNING 20 WK POST CARCINOGEN TREATMENT (STUDY DURATION: 60 WK), Route [Carcinogen]: SUBCUTANEOUS, Route [Promoter]: ORAL, Species: RAT, Strain/Sex: F344/MALE): prostate (ventral): adenocarcinoma

CNC[C@H](O)c1cccc(O)c1
outcome (Carcinogen: N-METHYL-N'-NITRO-N-NITROSOGUANIDINE, 70-25-7, Doses [Carcinogen]: 25 UG/ML IN DRINKING WATER FOR 20 WK, Doses [Promoter]: 0, 6 MG/KG BW IN OLIVE OIL 1/2 D BEGINNING POST CARCINOGEN TREATMENT (STUDY DURATION: 52 WK), Route [Carcinogen]: ORAL, Route [Promoter]: SUBCUTANEOUS, Species: RAT, Strain/Sex: WISTAR/MALE): stomach: adenocarcinoma
outcome (Carcinogen: N-METHYL-N'-NITRO-N-NITROSOGUANIDINE, 70-25-7, Doses [Carcinogen]: 25 UG/ML IN DRINKING WATER FOR 25 WK, Doses [Promoter]: 0, 6 MG/KG BW 1/2 D FOR 27 WK BEGINNING POST CARCINOGEN TREATMENT (STUDY DURATION: 52 WK), Route [Carcinogen]: ORAL, Route [Promoter]: SUBCUTANEOUS, Species: RAT, Strain/Sex: WISTAR/MALE): glandular stomach: adenocarcinoma

CCCCCCCCCCCC(=O)O
outcome (Carcinogen: 7,12-DIMETHYLBENZ(A)ANTHRACENE, Doses [Carcinogen]: TOP, Route [Carcinogen]: DERMAL, Route [Promoter]: DERMAL, Species: MOUSE, Strain/Sex: MALE,FEMALE): integumentary system (skin)

ClC1=C(Cl)C2(Cl)C3C(Cl)C(Cl)CC3C1(Cl)C2(Cl)Cl (stereo not drawn)
outcome (Carcinogen: DIETHYLNITROSAMINE, 55-18-5, Doses [Carcinogen]: 20 PPM IN DRINKING WATER FOR 14 WK, Doses [Promoter]: 0, 25, 50 PPM TECHNICAL GRADE IN DIET BEGINNING 4 WK POST LAST CARCINOGEN DOSE AND CONTINUING FOR 25 WK (STUDY DURATION:, Doses [Promoter]: 0, 25, 50 PPM TECHNICAL GRADE IN DIET BEGINNING 4 WK POST LAST CARCINOGEN DOSE AND CONTINUING FOR 25 WK (STUDY DURATION:, Route [Carcinogen]: ORAL, Route [Promoter]: ORAL, Species: MOUSE, Strain/Sex: B6C3F1/MALE): liver: adenoma or carcinoma

O=C1[C@H]2CC=CC[C@H]2C(=O)N1SC(Cl)(Cl)Cl
outcome (Carcinogen: DIETHYLNITROSAMINE, 55-18-5, N-METHYL-N-NITROSOUREA, 684-93-5, N-BIS(2-HYDROXYPROPYL)NITROSAMINE, 53609-64-6, Carcinogen: DIETHYLNITROSAMINE, 55-18-5, N-METHYL-N-NITROSOUREA, 684-93-5, N-BIS(2-HYDROXYPROPYL)NITROSAMINE, 53609-64-6, Doses [Carcinogen]: 100 MG/KG DEN ONCE THEN 20 MG/KG MNU 2/WK FOR 2 WK FOLLOWED BY 0.1% DHPN IN DRINKING WATER FOR 2 WK, Doses [Promoter]: 0, 4000 PPM IN DIET BEGINNING POST CARCINOGEN TREATMENT AND CONTINUING FOR 16 WK (STUDY DURATION: 20 WK), Route [Carcinogen]: INTRAPERITONEAL, INTRAPERITONEAL, ORAL, Route [Carcinogen]: INTRAPERITONEAL, INTRAPERITONEAL, ORAL, Route [Promoter]: ORAL, Species: RAT, Strain/Sex: F344/MALE): kidney: adenoma

N[C@@H](Cc1c[nH]c2ccccc12)C(=O)O
outcome (Carcinogen: N-(4-(5-NITRO-2-FURYL)-2-THIAZOLYL)FORMAMIDE, Doses [Carcinogen]: DIET, Doses [Promoter]: IN DIET, Route [Carcinogen]: ORAL, Route [Promoter]: ORAL, Species: MOUSE, Strain/Sex: FEMALE): urinary bladder

CCCCCCCCCCCC(=O)OC[C@@H](O)[C@H]1OC[C@H](O)[C@H]1O
outcome [1]: integumentary system (skin)

C=C1C(O)C2OC3(CCC(/C=C/C(C)C4CC(C)=CC5(OC(CC(C)(O)C(=O)O)CCC5O)O4)O3)CCC2OC1C(O)CC(C)C1OC2(CCC1C)OCCCC2C (stereo not drawn)
outcome (Carcinogen: 7,12-DIMETHYLBENZ[A]ANTHRACENE, 57-97-6, Doses [Carcinogen]: 100 UG IN 0.1 ML OF ACETONE ONCE, Doses [Promoter]: 0, 5 UG IN 0.1 ML OF ACETONE 2/WK FOR 30 WK BEGINNING 1 WK POST CARCINOGEN DOSE (STUDY DURATION: 31 WK), Route [Carcinogen]: DERMAL, Route [Promoter]: DERMAL, Species: MOUSE, Strain/Sex: CD-1/FEMALE): skin: tumor

CCCCCCCCCCCCCCCCCC(=O)OCCOC[C@@H](OCCO)[C@H]1OC[C@@H](OCCO)[C@@H]1OCCO
outcome [1]: integumentary system (skin)
